“Also recorded” adds a separate entry of the source.
Experiments:
[1] = molecular target: T1, Human recombinant ATG7 protein (Homo sapiens, UniProt O95352); assay: Labeling of ATG7 with probes in vitro (click chemistry, in-gel fluorescence); assay type: binding; details: 3 hours; for labeling efficiency of ATG7 (intensity of the fluorescent bands): catalytically active ATG7 (0.5 μM), increasing probe concentrations, click chemistry, in-gel fluorescence
T1 construct: purchased R&D Systems
T1 sequence (O95352 1-703): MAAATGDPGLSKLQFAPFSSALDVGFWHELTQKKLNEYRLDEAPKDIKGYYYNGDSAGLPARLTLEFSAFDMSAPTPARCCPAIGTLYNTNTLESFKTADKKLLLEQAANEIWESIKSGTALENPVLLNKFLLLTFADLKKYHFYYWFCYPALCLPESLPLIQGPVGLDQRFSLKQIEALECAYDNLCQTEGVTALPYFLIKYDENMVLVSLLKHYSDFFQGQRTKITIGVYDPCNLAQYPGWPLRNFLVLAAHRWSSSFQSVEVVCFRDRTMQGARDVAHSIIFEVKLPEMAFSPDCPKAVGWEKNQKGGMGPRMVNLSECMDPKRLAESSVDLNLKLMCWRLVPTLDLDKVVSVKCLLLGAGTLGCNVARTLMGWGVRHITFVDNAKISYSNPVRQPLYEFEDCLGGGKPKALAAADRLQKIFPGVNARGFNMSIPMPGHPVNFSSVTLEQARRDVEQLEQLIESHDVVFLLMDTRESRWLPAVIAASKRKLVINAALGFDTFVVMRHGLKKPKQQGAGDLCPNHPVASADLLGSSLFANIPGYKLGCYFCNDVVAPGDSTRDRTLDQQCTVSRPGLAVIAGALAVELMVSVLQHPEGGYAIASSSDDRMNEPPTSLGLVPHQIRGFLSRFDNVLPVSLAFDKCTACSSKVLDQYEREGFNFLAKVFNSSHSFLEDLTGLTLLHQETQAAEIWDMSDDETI
Method: Following the synthesis, we incubated probes 1, 2, and 3 with catalytically active ATG7 (0.5 μM) for 3 hours. Then the click chemistry was followed to measure the levels of small molecule labeled ATG7. The intensity of the fluorescent bands was interpreted as the labeling efficiency of the probes.
(§1) Subsequently, increasing concentrations of compounds 4 and 5 were incubated with catalytically active ATG7 (0.5 μM) for 3 hours. […] We also conducted an ATP-competition reaction to test if compounds 4 and 5 utilize the ATP binding site for the covalent labeling. ATG7 was incubated with compound 4 or 5 in the presence or absence of ATP (100 μM) (FIG. 5B).
(§2) General Information. Human recombinant ATG7 protein was purchased from R&D Systems and used without further purification. In-gel fluorescence imaging was performed on a Typhoon 9600 (GE Healthcare).
(§3) Labeling of ATG7 with probes 1, 2, 3, 4, and 5 in vitro. ATG7 (0.4 μM) and TCEP (100 μM) in buffer containing HEPES (25 mM, pH 7.6), NaCl (50 mM), and MgCl2 (4 mM) were treated with increasing concentrations of each probe at room temperature (10 μL total volume) for 2 h. The reaction mixtures were treated with 1 μl of 10% SDS followed by 4 μL of click reaction mixture: CuSO4 (final conc. 1 mM), TBTA (final conc. 100 μM), sodium ascorbate (final conc. 1 mM), and Azide-Fluor-585 (final conc. 100 μM). The reaction mixture was incubated for 30 min at r.t., followed by the addition of 3 μL of 6× Laemmli loading buffer, and resolved by 12% SDS-PAGE. The bottom of the gel was cut to eliminate the excessive amount of Azide-Fluor-585. The acrylamide gel was kept in 50% ddH2O, 40% EtOH and 10% Acetic acid solution until it was subjected to the in-gel scanning fluorescence imaging (Typhoon 9600, GE Healthcare). The proteins in the gel were then visualized with Instant Blue™.

[2] = molecular target: T1, Human recombinant ATG7 protein; assay: ATP-competition reaction for covalent labeling of ATG7; assay type: binding; details: ATP (100 μM) present or absent
Method: as §1, §2
as §3, with “The bottom of the gel was cut to eliminate the excessive amount of Azide-Fluor-585.” left out, “The proteins in the gel were then visualized with Instant Blue™.” left out

A549 cells = assay: In-gel fluorescent detection of probe-labeled proteomes in live A549 cells; assay type: cell-based; details: 10 μM, 2 hours; for cell permeability and labeling of proteins in live cells: rhodamine azide click, in-gel fluorescence
Method: We investigated the labeling of proteins with the developed probes inside of live cells. To this end, A549 cells were treated with 10 μM of compounds 1, 2, 3, and 5 for 2 hours. Then, the lysate was treated with click reaction mixtures containing rhodamine azide.
A549 cells were grown in RPMI medium (Life Technologies) supplemented with 10% fetal bovine serum in 6-well plates. Confluent A549 cells (9.6 cm^2 per condition in 6-well plates) were washed with Dulbecco's Phosphate-Buffered Saline (DPBS, 3 mL) and the growth medium was replaced with RPMI medium containing each probe. After 2 h incubation time at 37° C., cells were washed with DPBS (3 mL). 160 μL of lysis buffer containing Tris HCl (25 mM, pH 7.6), NaCl (150 mM), 1% NP40, 1% sodium deoxycholate, 0.1% SDS, and protease inhibitor cocktail for mammalian cells (Sigma-Aldrich, 1:100 v/v) was added to each well of the 6-well plates, and cells were lysed on ice for 10 min. The gathered lysate was flown through 21G syringe for the complete breakdown. The complete lysis of the cells was monitored using Carl Zeiss Primo Vert inverted microscope. 10 μL of each cell lysate was treated with sodium dodecyl sulfate (final concentration 1%), followed by the incubation with the click chemistry reagents (CuSO4 (final conc. 1 mM), TBTA (final conc. 100 μM), sodium ascorbate (final conc. 1 mM) and Azide-Fluor-585 (final conc. 100 μM) for 30 min. Proteins were resolved by 10% SDS-PAGE, and subjected to in-gel scanning fluorescence imaging to visualize the covalent adducts. Total proteins in the gel were then visualized by staining the gel with Instant Blue™.

| SMILES | labeling efficiency of ATG7 (intensity of the fluorescent bands) [1] | labeling of ATG7 in the presence of ATP compared to ATP free conditions [2] | off-targets (non-specifically labeled proteins) in live cells (A549 cells) | cell permeability and labeling of proteins in live cells (A549 cells) | labeling of ATG7 at 10 μM concentration ([1]; probe 10 μM, ATG7 (0.5 μM)) |
| --- | --- | --- | --- | --- | --- |
| C#Cc1cccc(Nc2ncnc3c2ncn3[C@@H]2O[C@H](COS(=O)(=O)C=C)[C@@H](O)[C@H]2O)c1 [Compound 5] | stronger intensity of the fluorescent bands than compound 4-treated ATG7; also recorded: much higher labeling efficiency than propargyl alkyne containing probes; also recorded: greater labeling potency than compound 4 | significantly dropped; also recorded: utilize ATP binding site for the ATG7 labeling | more numbers of off-targets when compared with compound 3; also recorded: strongest off target effects | cell permeable and able to label proteins in live cells | – |
| C#CCNc1ncnc2c1ncn2[C@@H]1O[C@H](CNS(=O)(=O)C=C)[C@@H](O)[C@H]1O [Compound 2] | – | – | – | cell permeable and able to label proteins in live cells | – |
| C#Cc1cccc(Nc2ncnc3c2ncn3[C@@H]2O[C@H](CNS(=O)(=O)C=C)[C@@H](O)[C@H]2O)c1 [Compound 3] | higher labeling efficiency than 2; also recorded: much higher labeling efficiency than propargyl alkyne containing probes; also recorded: most potently labels ATG7 | – | – | cell permeable and able to label proteins in live cells | – |
| C#CCCCCNS(=O)(=O)C=C [Compound 1] | inefficient labeling | – | – | cell permeable and able to label proteins in live cells | little labeling |
| C#CCNc1ncnc2c1ncn2[C@@H]1O[C@H](COS(=O)(=O)C=C)[C@@H](O)[C@H]1O [Compound 4] | – | significantly dropped; also recorded: utilize ATP binding site for the ATG7 labeling | – | – | – |

— patent publication US10376515B2, “Analogs of adenosine monophosphate (AMP) as inhibitors of ubiquitin-like modifier-activating enzyme ATG7” (Northwestern University, priority 2016, dated 2019)
